{"source": "ChEMBL document CHEMBL6153084", "about": "“The development of α, β-unsaturated lactam-based andrographolide derivatives as anti-gastric cancer agents with the ability of inhibiting the ERK/c-Fos/Jun pathway” (Eur J Med Chem, 2025)", "key": {"MGC-803 [1]": {"tested_on": "MGC-803", "experiment": "Induction of apoptosis in human MGC-803 cells assessed as viable cells at 2 uM incubated for 48 hrs by Annexin V-FITC/PI staining based flow cytometry analysis (reference value: 93.9%)", "type": "functional", "settings": "read-out: Activity"}, "MCF7": {"tested_on": "MCF7", "experiment": "Antiproliferative activity against human MCF7 cells assessed as inhibition of cell growth incubated for 24 to 72 hrs by MTT assay", "type": "functional, cell-based", "settings": "time 24-72 hrs"}, "MGC-803 [2]": {"tested_on": "MGC-803", "experiment": "Induction of apoptosis in human MGC-803 cells assessed as early apoptotic cells at 4 uM incubated for 48 hrs by Annexin V-FITC/PI staining based flow cytometry analysis (reference value: 0.30%)", "type": "functional"}, "MGC-803 [3]": {"tested_on": "MGC-803", "experiment": "Induction of apoptosis in human MGC-803 cells assessed as upregulation of Bax expression at 1 to 4 uM incubated for 24 hrs by Western blot analysis", "type": "functional, cell-based", "settings": "dose 1-4 µM"}, "MGC-803 [4]": {"tested_on": "MGC-803", "experiment": "Induction of apoptosis in human MGC-803 cells assessed as early apoptotic cells at 1 uM incubated for 48 hrs by Annexin V-FITC/PI staining based flow cytometry analysis (reference value: 0.30%)", "type": "functional"}, "MGC-803 [5]": {"tested_on": "MGC-803", "experiment": "Induction of apoptosis in human MGC-803 cells assessed as viable cells at 1 uM incubated for 48 hrs by Annexin V-FITC/PI staining based flow cytometry analysis (reference value: 93.9%)", "type": "functional", "settings": "read-out: Activity"}, "MGC-803 [6]": {"tested_on": "MGC-803", "experiment": "Antiproliferative activity against human MGC-803 cells assessed as inhibition of cell growth incubated for 24 to 48 hrs by MTT assay", "type": "functional, cell-based"}, "MGC-803 [7]": {"tested_on": "MGC-803", "experiment": "Induction of apoptosis in human MGC-803 cells assessed as viable cells at 4 uM incubated for 48 hrs by Annexin V-FITC/PI staining based flow cytometry analysis (reference value: 93.9%)", "type": "functional", "settings": "read-out: Activity"}, "MGC-803 [8]": {"tested_on": "MGC-803", "experiment": "Downregulation of c-FOS mRNA level in human MGC-803 at 4 uM incubated for 24 hrs by RT-qPCR analysis", "type": "functional, cell-based"}, "MGC-803 [9]": {"tested_on": "MGC-803", "experiment": "Antiproliferative activity against human MGC-803 cells assessed as reduction in clone areas incubated for 48 hrs […]", "type": "functional, cell-based", "settings": "dose <= 2.0 µM"}, "MGC-803 [10]": {"tested_on": "MGC-803", "experiment": "Induction of apoptosis in human MGC-803 cells assessed as necrotic cells at 1 uM incubated for 48 hrs by Annexin V-FITC/PI staining based flow cytometry analysis (reference value: 0.83%)", "type": "functional"}, "MGC-803 [11]": {"tested_on": "MGC-803", "experiment": "Antitumor activity against human MGC-803 cells xenografted in BALB/c mouse assessed as inhibition of tumor growth at 50 mg/kg, IG administered for 14 days", "type": "functional", "settings": "MGC-803, po, 336 h, time 14 day, read-out: TGI"}, "[12]": {"experiment": "Toxicity in BALB/c mouse implanted with human MGC-803 cells assessed as body weight loss at 25 to 50 mg/kg, IG", "type": "organism-based", "settings": "in vivo, po, dose 25-50 mg/kg"}, "MGC-803 [13]": {"tested_on": "MGC-803", "experiment": "Induction of apoptosis in human MGC-803 cells assessed as early apoptotic cells at 2 uM incubated for 48 hrs by Annexin V-FITC/PI staining based flow cytometry analysis (reference value: 0.30%)", "type": "functional"}, "MGC-803 [14]": {"tested_on": "MGC-803", "experiment": "Induction of cell cycle arrest in human MGC-803 cells assessed as accumulation of cells at G2/M phase at 0.5 uM incubated for 48 hrs by PI staining based flow cytometry analysis", "type": "functional"}, "AGS": {"tested_on": "AGS", "experiment": "Antiproliferative activity against human AGS cells assessed as inhibition of cell growth incubated for 48 hrs by MTT assay", "type": "functional, cell-based"}, "MGC-803 [15]": {"tested_on": "MGC-803", "experiment": "Antiproliferative activity against human MGC-803 cells assessed as inhibition of cell growth incubated for 24 to 72 hrs by MTT assay", "type": "functional, cell-based"}, "MGC-803 [16]": {"tested_on": "MGC-803", "experiment": "Induction of cell cycle arrest in human MGC-803 cells assessed as reduction in CDC25C level incubated for 24 hrs by Western blot analysis", "type": "functional, cell-based", "settings": "dose 1-4 µM"}, "HGC-27": {"tested_on": "HGC-27", "experiment": "Antiproliferative activity against human HGC-27 cells assessed as inhibition of cell growth incubated for 48 hrs by MTT assay", "type": "functional, cell-based", "settings": "HGC-27, 48 h"}, "MGC-803 [17]": {"tested_on": "MGC-803", "experiment": "Lipid-lowering activity in human MGC-803 cells assessed as reduction in lipid droplet accumulation by Oil Red O staining based analysis", "type": "functional, cell-based", "settings": "dose 1-4 µM"}, "MGC-803 [18]": {"tested_on": "MGC-803", "experiment": "Induction of cell cycle arrest in human MGC-803 cells assessed as accumulation of cells at G2/M phase at 0.25 uM incubated for 48 hrs by PI staining based flow cytometry analysis", "type": "functional"}, "MGC-803 [19]": {"tested_on": "MGC-803", "experiment": "Induction of apoptosis in human MGC-803 cells assessed as upregulation of cleaved caspase-3 expression at 1 to 4 uM incubated for 24 hrs by Western blot analysis", "type": "functional, cell-based", "settings": "dose 1-4 µM"}, "MGC-803 [20]": {"tested_on": "MGC-803", "experiment": "Lipid-lowering activity in human MGC-803 cells assessed as reduction in lipid size by Oil Red O staining based analysis", "type": "functional, cell-based", "settings": "dose 1-4 µM"}, "[21]": {"experiment": "Potency index, ratio of 5-fluorouracil IC50 to test compound IC50 for antiproliferative activity against human MGC-803 cells assessed as inhibition of cell growth incubated for 24 to 72 hrs by MTT assay", "type": "functional", "settings": "time 24-72 hrs"}, "ECa-109 cell line": {"tested_on": "ECa-109 cell line", "experiment": "Antiproliferative activity against human Eca-109 cells assessed as inhibition of cell growth incubated for 24 to 72 hrs by MTT assay", "type": "functional, cell-based", "settings": "time 24-72 hrs"}, "MGC-803 [22]": {"tested_on": "MGC-803", "experiment": "Induction of cell cycle arrest in human MGC-803 cells assessed as accumulation of cells at G2/M phase at 1 uM incubated for 48 hrs by PI staining based flow cytometry analysis", "type": "functional"}, "MGC-803 [23]": {"tested_on": "MGC-803", "experiment": "Upregulation of E-cadherin expression in human MGC-803 cells at 1 to 4 uM incubated for 48 hrs by Western blot analysis", "type": "functional, cell-based", "settings": "dose 1-4 µM"}, "MGC-803 [24]": {"tested_on": "MGC-803", "experiment": "Induction of apoptosis in human MGC-803 cells assessed as upregulation of cleaved PARP expression at 1 to 4 uM incubated for 24 hrs by Western blot analysis", "type": "functional, cell-based", "settings": "dose 1-4 µM"}, "MGC-803 [25]": {"tested_on": "MGC-803", "experiment": "Induction of cell cycle arrest in human MGC-803 cells assessed as accumulation of cells at G2/M phase incubated for 48 hrs by PI staining based flow cytometry analysis", "type": "functional", "settings": "dose 0.25-1 µM"}, "BGC-823": {"tested_on": "BGC-823", "experiment": "Antiproliferative activity against human BGC-823 cells assessed as inhibition of cell growth incubated for 48 hrs by MTT assay", "type": "functional, cell-based", "settings": "BGC-823, 48 h"}, "MGC-803 [26]": {"tested_on": "MGC-803", "experiment": "Induction of apoptosis in human MGC-803 cells assessed as necrotic cells at 4 uM incubated for 48 hrs by Annexin V-FITC/PI staining based flow cytometry analysis (reference value: 0.83%)", "type": "functional"}, "MGC-803 [27]": {"tested_on": "MGC-803", "experiment": "Antitumor activity against human MGC-803 cells xenografted in BALB/c mouse assessed as inhibition of tumor growth at 25 to 50 mg/kg, IG administered for 14 days", "type": "functional, organism-based", "settings": "dose 25-50 mg/kg, time 14.0 day"}, "MGC-803 [28]": {"tested_on": "MGC-803", "experiment": "Downregulation of alpha-SMA expression in human MGC-803 cells at 1 to 4 uM incubated for 48 hrs by Western blot analysis", "type": "functional, cell-based", "settings": "dose 1-4 µM"}, "MGC-803 [29]": {"tested_on": "MGC-803", "experiment": "Downregulation of ACSS2 mRNA level in human MGC-803 cells at 4 uM incubated for 24 hrs by RT-qPCR analysis", "type": "functional, cell-based"}, "MGC-803 [30]": {"tested_on": "MGC-803", "experiment": "Induction of apoptosis in human MGC-803 cells assessed as late apoptotic cells at 1 uM incubated for 48 hrs by Annexin V-FITC/PI staining based flow cytometry analysis (reference value: 0.98%)", "type": "functional"}, "A549": {"tested_on": "A549", "experiment": "Antiproliferative activity against human A549 cells assessed as inhibition of cell growth incubated for 24 to 72 hrs by MTT assay", "type": "functional, cell-based", "settings": "time 24-72 hrs"}, "MGC-803 [31]": {"tested_on": "MGC-803", "experiment": "Downregulation of c-jun level in human MGC-803 cells at 4 uM incubated for 24 hrs by immunoblotting analysis", "type": "functional, cell-based"}}, "note": "Active and inactive are the calls of the source. No cut-off for these calls is given here.", "data": [{"compound": "C=C1CC[C@@H]2[C@](C)(CO)[C@H](O)CC[C@@]2(C)[C@@H]1/C=C/C1=CC(=C/c2ccc(C)cc2)/NC1=O", "values": [{"measurement": "viability at 2 µM", "setting": "MGC-803 [1]", "result": 40.2, "unit": "%"}, {"measurement": "Activity", "setting": "MCF7", "result": "inactive"}, {"measurement": "Activity", "setting": "MGC-803 [2]", "result": 12.4, "unit": "%"}, {"measurement": "Activity", "setting": "MGC-803 [3]", "result": "Active"}, {"measurement": "Activity", "setting": "MGC-803 [4]", "result": 0.44, "unit": "%"}, {"measurement": "viability at 1 µM", "setting": "MGC-803 [5]", "result": 71.9, "unit": "%"}, {"measurement": "IC50", "setting": "MGC-803 [6]", "result": 3.56, "unit": "µM"}, {"measurement": "viability at 4 µM", "setting": "MGC-803 [7]", "result": 16, "unit": "%"}, {"measurement": "Activity", "setting": "MGC-803 [8]", "result": "Active"}, {"measurement": "Activity", "setting": "MGC-803 [9]", "result": "Dose-dependent-effect"}, {"measurement": "Activity", "setting": "MGC-803 [10]", "result": 12.6, "unit": "%"}, {"measurement": "inhibition in vivo at 50 mg/kg", "setting": "MGC-803 [11]", "result": 50, "unit": "%"}, {"measurement": "Activity", "setting": "[12]", "result": "Non-toxic"}, {"measurement": "Activity", "setting": "MGC-803 [13]", "result": 5.47, "unit": "%"}, {"measurement": "Activity", "setting": "MGC-803 [14]", "result": 14.5, "unit": "%"}, {"measurement": "IC50", "setting": "AGS", "result": 5.24, "unit": "µM"}, {"measurement": "IC50", "setting": "MGC-803 [15]", "result": 2.31, "unit": "µM"}, {"measurement": "Activity", "setting": "MGC-803 [15]; time 24-72 hrs", "result": "Dose-dependent-effect"}, {"measurement": "Activity", "setting": "MGC-803 [16]", "result": "Dose-dependent-effect"}, {"measurement": "IC50", "setting": "HGC-27", "result": 6.5, "unit": "µM"}, {"measurement": "Activity", "setting": "MGC-803 [17]", "result": "Dose-dependent-effect"}, {"measurement": "Activity", "setting": "MGC-803 [18]", "result": 9.59, "unit": "%"}, {"measurement": "Activity", "setting": "MGC-803 [19]", "result": "Active"}, {"measurement": "Activity", "setting": "MGC-803 [20]", "result": "Dose-dependent-effect"}, {"measurement": "Ratio IC50", "setting": "[21]", "result": "~8"}, {"measurement": "Activity", "setting": "ECa-109 cell line", "result": "inactive"}, {"measurement": "Activity", "setting": "MGC-803 [22]", "result": 25.4, "unit": "%"}, {"measurement": "Activity", "setting": "MGC-803 [23]", "result": "Active"}, {"measurement": "Activity", "setting": "MGC-803 [24]", "result": "Active"}, {"measurement": "Activity", "setting": "MGC-803 [25]", "result": "Dose-dependent-effect"}, {"measurement": "IC50", "setting": "BGC-823", "result": 38, "unit": "µM"}, {"measurement": "Activity", "setting": "MGC-803 [26]", "result": 4.54, "unit": "%"}, {"measurement": "TGI", "setting": "MGC-803 [27]", "result": "Active"}, {"measurement": "Activity", "setting": "MGC-803 [28]", "result": "Active"}, {"measurement": "Activity", "setting": "MGC-803 [29]", "result": "Active"}, {"measurement": "Activity", "setting": "MGC-803 [30]", "result": 15.1, "unit": "%"}, {"measurement": "Activity", "setting": "A549", "result": "inactive"}, {"measurement": "Activity", "setting": "MGC-803 [31]", "result": "Active"}]}]}
